Results as given in ChEMBL document CHEMBL1154694, “Discovery of a 2,4-diamino-7-aminoalkoxyquinazoline as a potent and selective inhibitor of histone lysine methyltransferase G9a” (J Med Chem, 2009).
pIC50: −log10 of the molar value.

Experiments:
[1] = target: T1, Histone-lysine N-methyltransferase EHMT2 (Homo sapiens) (UniProt Q96KQ7); experiment: Inhibition of G9a at 1 uM by Thioglo assay
T1 sequence (whole entry): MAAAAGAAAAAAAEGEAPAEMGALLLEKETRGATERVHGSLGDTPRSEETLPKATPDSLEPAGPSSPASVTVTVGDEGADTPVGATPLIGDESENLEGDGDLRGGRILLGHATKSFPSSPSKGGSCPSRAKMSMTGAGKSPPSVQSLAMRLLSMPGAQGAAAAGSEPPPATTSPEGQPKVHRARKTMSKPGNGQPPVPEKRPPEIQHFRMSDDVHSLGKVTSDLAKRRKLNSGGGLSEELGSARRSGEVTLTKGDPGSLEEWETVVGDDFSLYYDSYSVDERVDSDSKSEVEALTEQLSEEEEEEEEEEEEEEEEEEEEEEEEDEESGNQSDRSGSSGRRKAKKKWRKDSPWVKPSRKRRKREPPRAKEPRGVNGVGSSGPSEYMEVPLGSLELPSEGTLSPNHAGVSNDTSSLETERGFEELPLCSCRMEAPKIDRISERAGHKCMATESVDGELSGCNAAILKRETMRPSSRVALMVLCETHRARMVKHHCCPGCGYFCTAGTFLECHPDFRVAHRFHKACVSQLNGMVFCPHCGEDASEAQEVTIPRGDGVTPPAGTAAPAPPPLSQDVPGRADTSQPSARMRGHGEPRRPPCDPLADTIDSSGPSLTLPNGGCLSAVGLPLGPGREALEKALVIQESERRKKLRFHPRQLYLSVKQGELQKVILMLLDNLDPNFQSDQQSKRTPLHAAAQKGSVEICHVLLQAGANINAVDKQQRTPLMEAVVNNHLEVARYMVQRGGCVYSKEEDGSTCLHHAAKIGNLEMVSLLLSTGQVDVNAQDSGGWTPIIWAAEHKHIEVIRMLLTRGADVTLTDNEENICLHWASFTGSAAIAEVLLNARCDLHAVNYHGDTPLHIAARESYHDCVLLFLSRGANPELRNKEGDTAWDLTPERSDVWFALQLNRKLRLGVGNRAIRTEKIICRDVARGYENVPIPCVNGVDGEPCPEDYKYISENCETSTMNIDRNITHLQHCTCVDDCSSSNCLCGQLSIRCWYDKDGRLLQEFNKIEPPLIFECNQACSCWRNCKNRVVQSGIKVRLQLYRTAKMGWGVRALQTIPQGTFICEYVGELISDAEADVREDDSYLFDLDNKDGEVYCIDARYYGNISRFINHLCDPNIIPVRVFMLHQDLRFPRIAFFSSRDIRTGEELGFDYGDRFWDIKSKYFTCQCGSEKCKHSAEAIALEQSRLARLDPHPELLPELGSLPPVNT

[2] = target: T2, Histone-lysine N-methyltransferase EHMT2 (Homo sapiens, UniProt Q96KQ7); experiment: Inhibition of G9a by Alpha screen assay
T2 sequence (Q96KQ7 whole entry): T1 sequence (whole entry)

[3] = target: T3, Muscarinic acetylcholine receptor M2 (Homo sapiens) (UniProt P08172); experiment: Inhibition of muscarinic M2 receptor at 1 uM
T3 sequence (whole entry): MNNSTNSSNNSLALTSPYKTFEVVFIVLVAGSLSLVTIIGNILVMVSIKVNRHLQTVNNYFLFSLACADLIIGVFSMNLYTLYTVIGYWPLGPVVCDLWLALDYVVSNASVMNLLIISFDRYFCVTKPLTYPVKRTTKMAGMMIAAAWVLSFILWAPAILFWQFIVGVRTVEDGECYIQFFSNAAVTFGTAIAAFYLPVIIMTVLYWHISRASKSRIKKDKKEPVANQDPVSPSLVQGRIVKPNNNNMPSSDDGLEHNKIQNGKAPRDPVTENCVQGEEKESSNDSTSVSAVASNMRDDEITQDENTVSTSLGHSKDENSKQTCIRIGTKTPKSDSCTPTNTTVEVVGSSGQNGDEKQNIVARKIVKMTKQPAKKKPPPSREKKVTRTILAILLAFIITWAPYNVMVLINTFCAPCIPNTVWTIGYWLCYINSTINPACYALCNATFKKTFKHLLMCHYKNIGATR

[4] = target: Histamine H1 receptor (Homo sapiens) (UniProt P35367); experiment: Inhibition of histamine H1 receptor at 1 uM
[5] = target: T2, Histone-lysine N-methyltransferase EHMT2
Description: Inhibition of G9a by Thioglo assay

Chain of Histamine H1 receptor (Homo sapiens) (P35367 whole entry): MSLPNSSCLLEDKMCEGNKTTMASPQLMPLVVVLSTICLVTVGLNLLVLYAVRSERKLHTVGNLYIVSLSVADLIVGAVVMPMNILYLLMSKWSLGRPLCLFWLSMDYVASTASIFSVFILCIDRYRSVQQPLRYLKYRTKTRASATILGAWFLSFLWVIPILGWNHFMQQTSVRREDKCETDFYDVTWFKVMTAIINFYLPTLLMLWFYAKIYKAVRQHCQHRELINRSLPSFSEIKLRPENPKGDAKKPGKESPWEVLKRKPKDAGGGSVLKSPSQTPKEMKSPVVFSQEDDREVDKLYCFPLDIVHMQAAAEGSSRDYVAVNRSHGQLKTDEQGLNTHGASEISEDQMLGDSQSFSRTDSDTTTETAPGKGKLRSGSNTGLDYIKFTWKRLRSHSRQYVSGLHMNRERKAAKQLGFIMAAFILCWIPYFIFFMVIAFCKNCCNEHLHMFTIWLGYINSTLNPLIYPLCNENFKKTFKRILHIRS

COc1cc2nc(N3CCCN(C)CC3)nc(NC3CCNCC3)c2cc1OC
inhibition [1]: < 30% | pIC50 [2]: < 5.00

COc1cc2nc(N3CCCN(C)CC3)nc(NC(C)C)c2cc1OC
inhibition [1]: < 30% | pIC50 [2]: 5.24

COc1cc2nc(N3CCCN(C)CC3)nc(NC3CC3)c2cc1OC
inhibition [1]: < 30% | pIC50 [2]: 5.29

COc1cc2nc(N3CCCN(C)CC3)nc(NC3CCOCC3)c2cc1OC
inhibition [1]: < 30% | pIC50 [2]: < 5.00

COc1cc2nc(Cl)nc(NC3CCN(C)CC3)c2cc1OC
inhibition [1]: < 30% | pIC50 [2]: 5.04

COc1cc2c(NC3CCN(C)CC3)nc(N3CCCN(C)CC3)nc2cc1OCCCN(C)C
inhibition [3]: 82% | inhibition [4]: 31%

COc1cc2nc(N3CCOCC3)nc(NC3CCN(C)CC3)c2cc1OC
pIC50 [2]: 6.09 | pIC50 [5]: 5.80

COc1cc2nc(N3CCCCC3)nc(NC3CCN(C)CC3)c2cc1OC
pIC50 [2]: 6.29 | pIC50 [5]: 6.26
